Measured values published in patent US20250161297A1, “COMPOSITIONS AND METHODS FOR INHIBITING FSP1” (THE REGENTS OF THE UNIVERSITY OF CALIFORNIA, priority 2022, published 2025).
pEC50: −log10 of the molar value.

How the values were obtained:
NQO1 = target: T1, NQO1 (Homo sapiens, UniProt P15559); test: NQO1 CoQ oxidoreductase activity assay; assay type: biochemical
T1 construct: His6 (N); TEV cleavage site (N); made in house; host or cells: E. coli LOBSTR-BL21 (DE3)
Protocol: FSP1 and NQO1% Activity Curves: To measure in vitro activity of FSP1 and NQO1 for IC50 calculation, recombinant purified FSP1 and NQO1 were diluted in PBS. FSEN1 was dissolved and diluted in DMSO, and […] FSEN1 and 12.5 μL FSP1/NQO1 were mixed on an orbital shaker for 45 seconds at 450 rpm and incubated for 30 minutes in a NBS polystyrene 384-well plate (Corning Ref: 3640) at RT. NADH (Millipore Cat: 481913) was dissolved and diluted in PBS, and CoQ1 (Sigma-Aldrich SKU: C7956) was dissolved in DMSO and diluted in PBS. Diluted NADH and CoQ1 were combined into a 2×reaction mix and added to the plate wells to start the reaction. Final well volume was 25 μL, and final concentrations were 12.5n M FSP1, 400 µM CoQ1, 500 µM NADH, and 0.01-20 µM FSEN1. NADH Absorbance (355 nm) was measured as an inverse read-out of enzymatic product formation on a kinetic cycle with an interval time of 2.5 minutes at RT. All data was acquired using a Tecan infinite M1000. Raw data from 3 biological replicates were then plotted and initial slopes were calculated using a linear regression in prism (GraphPad), and all rates were normalized to vehicle (0 nM FSEN1) and No Protein controls where the highest and lowest slope values were used as 0 and 100%. […]

H460^C GPX4^KO cells = test: cell-based assay of FSP1 activity, cell death (SYTOX Green/mCherry lethal fraction); details: H460^C GPX4^KO cells; read-out: EC50 for triggering cell death
Protocol: For cell-based screen, cells were seeded in triplicate at a density of 500-750 cells per 50 μL per well in black 384-well plates (NUNC) and (Corning) 24 hr before start of imaging. After 24 hr, an additional 50 μL of drug infused medium containing 30 nM SYTOX Green Dead Cell Stain was carefully placed into the wells on top of existing medium. The plates were immediately transferred to an IncuCyte S3 imaging system (Essen Bioscience) enclosed in an incubator set to 37° C. and 5% CO2. One image per well were captured in the phase, green, and red channels every 1.5 or 3 hr over a 24 hr period, and the ratio of SYTOX Green-positive objects (dead cells) to SYTOX Green-positive plus Sg-SAFE mCherry-positive objects (total cells) was quantified using S3 image analysis software (Essen Bioscience). For each treatment condition, the SYTOX-to-′SYTOX+mCherry′-object ratio was plotted against the 24 hr imaging interval, the Area Under the Curve (AUC) was calculated and the average AUC was plotted using Prism (GraphPad). To calculate the half-maximal effective concentration (EC50) values, the AUC curve was fit to a variable slope function comparing response to drug concentration.
In addition to the in vitro activity assay, an orthogonal cell-based assay of FSP1 activity was also developed. […]

T1 sequence (P15559 2-274): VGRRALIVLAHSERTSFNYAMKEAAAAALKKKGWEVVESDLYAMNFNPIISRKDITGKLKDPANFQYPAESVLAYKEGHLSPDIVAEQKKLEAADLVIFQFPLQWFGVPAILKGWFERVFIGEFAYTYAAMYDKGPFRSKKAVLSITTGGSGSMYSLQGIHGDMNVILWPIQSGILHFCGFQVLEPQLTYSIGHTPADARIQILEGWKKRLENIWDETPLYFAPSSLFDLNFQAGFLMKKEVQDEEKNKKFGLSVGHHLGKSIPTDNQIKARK

Compound: COc1ccc(N2CCN(Cc3cn4c(-c5ccc(Br)cc5)nnc4s3)CC2)cc1 [FSEN1]
- effect on the CoQ oxidoreductase activity of NQO1 (NQO1): no effect
- pEC50 (H460^C GPX4^KO cells): 7.16
